{"source": "patent US12533350B2", "about": "“Use of melanocortin-1 receptor agonist” (TANABE PHARMA CORPORATION, priority 2022, dated 2026)", "key": {"[1]": {"test_system": "bleomycin (BLM)-induced systemic sclerosis (SSc) model: skin fibrosis and lung inflammation", "protocol": "The back of mice was shaved, and the middle of the back was marked with oil-based red ink. Phosphate-buffered saline (PBS) or BLM (Nippon Kayaku) (0.15 mg/0.1 mL per animal) was subcutaneously injected at the marked site once daily from day 0 to day 25. Compound A solutions at 0.1 mL/10 g of body weight were orally administered once daily (approximately 2 hours before the BLM injection) for 29 consecutive days from day 0 until the day before the end of evaluation (day 28).\nOn day 29, mice were euthanized by inhalation anesthesia with isoflurane, and whole blood and back skin samples were collected. The left lung was dissected, weighed, and immersed in RNAlater solution (Qiagen). The collected blood was separated into serum. The injection site of skin was excised, weighed (wet weight) and immersed in 0.5 mol/L acetic acid solution containing 0.3 mg/mL pepsin to solubilize collagen. The collagen content of the solubilized sample was explored using the QuickZyme Soluble Collagen Assay kit (QuickZyme Biosciences), and absorbance was determined by a microplate reader (VERSAmax, Molecular Devices, LLC). Serum levels of surfactant protein D (SP-D) were assayed using the Rat/Mouse SP-D kit YAMASA EIA (Yamasa Corporation), and absorbance was determined by a microplate reader (VERSAmax, Molecular Devices, LLC). Total RNA of lungs was isolated using RNeasy 96 Universal Tissue Kit (Qiagen) according to the manufacturer's instructions. Real-time PCR was performed using the One Step SYBR PrimeScript PLUS RT-PCR Kit (Takara Bio Inc.) and ABI PRISM 7900HT Real Time PCR System (Applied Biosystems). Takara perfect real time primer pairs (Takara Bio Inc.) were used to analyze the gene expression of chemokine Cc12 (also named as monocyte chemotactic protein-1 (Mcp-1, MA066003)), interleukin-6 (IL-6, MA039013), and hypoxanthine phosphoribosyltransferase (Hprt, MA031262). Quantification was performed using the comparative CT (cycle threshold) method employing Hprt as the housekeeping gene. A serum concentration of endothelin 1 (ET-1) was assayed using Quantikine Endothelin-1 (R & D systems) and the absorbance was measured by the microplate reader (VERSAmax, Molecular Devices, LLC).\nTherefore, differences in body weight at each time point were analyzed between the PBS_vehicle and BLM_vehicle groups using Student's t test."}, "[2]": {"test_system": "dermal fibroblasts from SSc patients", "assay": "TGF-β-induced human fibroblast activation, SSc patients", "format": "cell-based", "conditions": "concentration of 1000 nmol/L; TGF-β 10 ng/mL, 24 hours", "from_the_text": "Full-thickness skin biopsies were obtained from clinically involved skin of patients affected by dcSSc, who were recruited from the Systemic sclerosis clinic within the Leeds Institute of Rheumatic and Musculoskeletal Medicine (UK). Control skin samples were from healthy donors. All patients with dcSSc and healthy donors provided written informed consent through the stratification for risk of progression in systemic sclerosis (STRIKE SSC), which had been approved by the North-East Research Ethic committee. Patients with SSc fulfilled the 2013 ACR/EULAR classification criteria for SSc and were classified as having dcSSc according to the LeRoy and Medsger criteria.\nDermal fibroblasts were isolated from the skin biopsy samples of healthy donors and SSc patients. […]\nTotal RNA was extracted using the Zymo quick RNA mini prep kit according to manufacturer's instructions (Zymo Research Corporation). […] Quantitative RT-PCR was performed in triplicates using SYBR Green RT-PCR Mastermix Kit (Thermo Fisher Scientific) and the ABI PRISM 7500 Fast Real Time PCR System (Applied Biosystems). […]\nFIGS. 5(A)-5(B) show the effect of Compound A on human fibroblast activation. […] Each bar represents the mean±SEM of the measured values from three wells. […]"}, "MC1R": {"target": "MC1R (Homo sapiens, UniProt Q01726)", "sequence (Q01726 whole entry, species assumed)": "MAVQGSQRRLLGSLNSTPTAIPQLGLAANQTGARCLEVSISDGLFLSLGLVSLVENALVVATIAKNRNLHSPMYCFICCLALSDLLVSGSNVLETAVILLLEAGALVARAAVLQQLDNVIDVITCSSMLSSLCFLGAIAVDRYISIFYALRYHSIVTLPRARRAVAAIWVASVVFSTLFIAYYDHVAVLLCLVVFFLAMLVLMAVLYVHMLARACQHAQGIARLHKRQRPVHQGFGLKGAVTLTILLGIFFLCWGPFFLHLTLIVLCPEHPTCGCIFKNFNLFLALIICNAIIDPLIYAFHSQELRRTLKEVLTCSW", "conditions": "described in WO 2020/138481; co-crystal with phosphoric acid; cited from earlier work"}, "[3]": {"conditions": "Compound A at ≥0.3 mg/kg orally once daily day 0-28, measured day 29"}, "[4]": {"conditions": "Compound A at ≥0.3 mg/kg orally once daily day 0-28, measured day 29, relative to Hprt"}}}
{"molecule": "COC[C@H]1CN(C(=O)[C@]2(F)CN(C3CCCC3)C[C@H]2c2ccc(OC)cc2)C[C@@H]1c1ccc(C(F)(F)F)cc1N1CCC(C(=O)O)CC1", "note": "[Compound A, 1-{2-[(3S,4R)-1-{[(3R,4R)-1-cyclopentyl-3-fluoro-4-(4-methoxyphenyl)pyrrolidin-3-yl]carbonyl}-4-(methoxymethyl)pyrrolidin-3-yl]-5-(trifluoromethyl)phenyl}piperidine-4-carboxylic acid]", "values": [{"measurement": "BLM-induced increase of collagen content of the skin", "setting": "[1]; [3]", "value": "inhibited significantly"}, {"measurement": "BLM-induced increase of serum concentration of ET-1", "setting": "[1]; [3]", "value": "inhibited significantly"}, {"measurement": "BLM-induced increase of serum level of SP-D", "setting": "[1]; [3]", "value": "inhibited significantly"}, {"measurement": "BLM-induced increase of wet weight of the left lung", "setting": "[1]; [3]", "value": "inhibited significantly"}, {"measurement": "BLM-induced increase of IL-6 mRNA expression in the lung", "setting": "[1]; [4]", "value": "inhibited significantly"}, {"measurement": "BLM-induced increase of Mcp-1 mRNA expression in the lung", "setting": "[1]; [4]", "value": "inhibited significantly"}, {"measurement": "BLM-induced decrease of body weight", "setting": "[1]; Compound A at ≥0.3 mg/kg orally once daily, day 0 to day 29", "value": "significantly improved"}, {"measurement": "TGF-β-induced increase in αSMA mRNA expression", "setting": "[2]", "value": "suppressed"}, {"measurement": "MCR-activating action, especially MC1R-activating action", "setting": "MC1R", "value": "excellent MCR-activating action"}]}
